Laboratory results reported in patent publication EP2140864A2 (H. Lundbeck A/S, priority 2001, dated 2002).
Like-named read-outs stand apart in the source and are kept apart here. Marks after values point to notes of the source that are not given here.

What was measured:
Male Sprague-Dawley rats = test: Rat Forced Swim Test (FST); type: in vivo; details: for antidepressant profile in the FST (conclusion): overall conclusion of the study
Experimental: The procedure used in this study was similar to that previously described (Porsolt, et al., 1978), except the water depth (30 cm in this procedure). The greater depth in this test prevented the rats from supporting themselves by touching the bottom of the cylinder with their feet. Swim sessions were conducted by placing rats in individual plexiglass cylinders (46 cm tall x 20 cm in diameter) containing 23-25°C water 30 cm deep (Porsolt, et al. used a depth of only 15 cm; also, see Detke, et al., 1995). Two swim tests were conducted always between 1200 and 1800 hours: an initial 15-min pretest followed 24 h later by a 5-minute test. […] All other test sessions were conducted between 1300 to 1700 hours. Following all swim sessions, rats were removed from the cylinders, dried with paper towels and placed in a heated cage for 15 minutes and returned to their home cages. All test sessions were videotaped using a Panasonic color video camera and recorder for scoring later.
Male Sprague-Dawley rats (Taconic Farms, NY) were used in all experiments. Rats were housed in pairs and maintained on a 12:12-h light-dark cycle. Rats were handled for 5 minutes each day for 5 days prior to behavioral testing.
The rat's behavior was rated at 5 second intervals during the 5 minute test as one of the following: • 1. Immobility- rat remained floating in the water without struggling and was only making those movements necessary to keep its head above water; • 2. Climbing - rat was making active movements with its forepaws in and out of the water, usually directed against the walls; • 3. Swimming - rat was making active swimming motions, more than necessary to merely maintain its head above water, e.g. moving around in the cylinder; and • 4. Diving - entire body of the rat was submerged.
All of the behavior scoring was done by a single rater, who was blind to the treatment condition. The rater was also present in the room throughout the entire test period.
All injections were given using 1 cc tuberculin syringe with 26 3/8 gauge needles (Becton-Dickinson, VWR Scientific, Bridgeport, NJ). The volume of injection was 1 ml/kg.
The drugs were dissolved in 100% N,N-dimethylacetamide. All administrations were given using 1 cc tuberculin syringes, to which a 3 inch, curved, stainless steel gavage needle was attached. The volume of administration was 1 ml/kg.
The compounds were dissolved in 100% N,N-dimethylacetamide. All administrations were given using 1 cc tuberculin syringes, to which a 3 inch, curved, stainless steel gavage needle was attached. The volume of administration was 1 ml/kg.
The forced swim test data (immobility, swimming, climbing, diving) were subjected to a randomized, one-way ANOVA and post hoc tests conducted using the Student-Newman-heuls test. The data were analyzed using the GBSTAT program, version 6.5 (Dynamics Microsystems, Inc., Silver Spring, MD, 1997). All data are presented as means ± S.E.M.

human GAL3 receptor = target: T1, human GAL3 receptor (Homo sapiens, UniProt O60755); test: Radioligand binding at cloned human GAL3 receptor; details: cloned human receptor, read-out: Ki GalR3
T1 construct: expressed in transfected cells
T1 sequence (O60755 1-368): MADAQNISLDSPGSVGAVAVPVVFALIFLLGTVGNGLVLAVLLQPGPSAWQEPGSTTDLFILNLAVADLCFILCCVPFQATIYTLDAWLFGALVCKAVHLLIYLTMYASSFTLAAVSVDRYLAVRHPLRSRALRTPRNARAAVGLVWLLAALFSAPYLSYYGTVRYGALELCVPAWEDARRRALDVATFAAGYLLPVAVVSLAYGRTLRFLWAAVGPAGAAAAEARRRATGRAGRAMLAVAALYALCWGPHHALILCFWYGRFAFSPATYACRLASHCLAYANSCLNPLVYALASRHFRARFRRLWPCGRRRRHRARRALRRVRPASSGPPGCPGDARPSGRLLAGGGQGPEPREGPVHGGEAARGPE
Summary of the method: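 Compound vehicle, as final assay concentration, was 3% DMSO (indolones) or 1% ethanol/0.09% polypuronic acid F-127 (pyrimidines). Binding measured on fresh or frozen membranes of stably transfected LM(tk-) mouse fibroblasts carrying cloned human GAL3, in pH 7.4 HEPES buffer; values derived by nonlinear regression.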

[1] = 1 mg/kg p.o., single administration, 1 hr. before test
[2] = 3 mg/kg p.o., single administration, 1 hr. before test
[3] = 10 mg/kg p.o., single administration, 1 hr. before test
[4] = 3 mg/kg p.o., single administration 24 hours before the test day
[5] = 5 mg/kg p.o., single administration, 1 hr. before test
[6] = 10 mg/kg i.p., single injection, 5 minute test
[7] = 10 mg/kg p.o., single administration 24 hours before the test day

CN(C)c1cc(Nc2ccc(Cl)c(Cl)c2)nc(N2CCN(Cc3ccccc3)CC2)n1 [Example 151]
Climbing (Male Sprague-Dawley rats; [1]): 2.3 ± 0.6
Diving (Male Sprague-Dawley rats; [1]): 0.2 ± 0.2
Immobility (Male Sprague-Dawley rats; [1]): 41 ± 2.0
Swimming (Male Sprague-Dawley rats; [1]): 16.8 ± 1.4^d
Climbing (Male Sprague-Dawley rats; [2]): 2.4 ± 0.5
Diving (Male Sprague-Dawley rats; [2]): 0.3 ± 0.2
Immobility (Male Sprague-Dawley rats; [2]): 38 ± 2.0^a
Swimming (Male Sprague-Dawley rats; [2]): 19.5 ± 1.5^e
Climbing (Male Sprague-Dawley rats; [3]): 2.2 ± 0.5
Diving (Male Sprague-Dawley rats; [3]): 0.3 ± 0.2
Immobility (Male Sprague-Dawley rats; [3]): 39 ± 1.8^b
Swimming (Male Sprague-Dawley rats; [3]): 18.9 ± 1.5^e
antidepressant profile in the FST (conclusion) (Male Sprague-Dawley rats): resemble those of antidepressants
Ki (human GAL3 receptor; pyrimidines): 11 nM

O=C1/C(=N\c2ccc(Cl)c(Cl)c2)c2ccccc2N1c1ccsc1 [Example 272, (3Z)-3-[(3,4-DICHLOROPHENYL)IMINO]-1-(3-THIENYL)-1,3-DIHYDRO-2H-INDOL-2-ONE]
Climbing (Male Sprague-Dawley rats; [4]): 3.9 ± 0.6
Diving (Male Sprague-Dawley rats; [4]): 0.6 ± 0.4
Immobility (Male Sprague-Dawley rats; [4]): 33 ± 1.8^a
Swimming (Male Sprague-Dawley rats; [4]): 22.9 ± 1.3^b
antidepressant profile in the FST (conclusion) (Male Sprague-Dawley rats): has the profile of an antidepressant
Ki (human GAL3 receptor; indolones): 26 nM

O=C1/C(=N\c2cccc3ncccc23)c2ccccc2N1c1ccccc1 [Example 282, (3Z)-1-PHENYL-3-(5-QUINOLINYLIMINO)-1,3-DIHYDRO-2H-INDOL-2-ONE]
Ki (human GAL3 receptor; indolones): 333 nM

O=C1/C(=N\c2ccc(I)cc2)c2ccccc2N1c1ccccc1 [Example 283, (3Z)-3-[(4-IODOPHENYL)IMINO]-1-PHENYL-1,3-DIHYDRO-2H-INDOL-2-ONE]
Ki (human GAL3 receptor; indolones): 33 nM

O=C1/C(=N\c2ccc(F)c(F)c2)c2ccccc2N1c1ccccc1 [Example 285, (3Z)-3-[(3,4-DIFLUOROPHENYL)IMINO]-1-PHENYL-1,3-DIHYDRO-2H-INDOL-2-ONE]
Ki (human GAL3 receptor; indolones): 26 nM

COc1ccc(/N=C2\C(=O)N(c3ccccc3)c3ccccc32)c(OC)c1 [Example 287, (3Z)-3-[(2,4-DIMETHOXYPHENYL)IMINO]-1-PHENYL-1,3-DIHYDRO-2H-INDOL-2-ONE]
Ki (human GAL3 receptor; indolones): 260 nM

N#Cc1cccc(/N=C2\C(=O)N(c3ccccc3)c3ccccc32)c1 [Example 288, 3-{[(3Z)-2-OXO-1-PHENYL-1,2-DIHYDRO-3H-INDOL-3-YLIDENE]AMINO}BENZONITRILE]
Ki (human GAL3 receptor; indolones): 39 nM

Cc1ccc(C(F)(F)F)cc1/N=C1\C(=O)N(c2ccccc2)c2ccccc21 [Example 289, (3Z)-3-{[2-METHYL-5-(TRIFLUOROMETHYL)PHENYL]IMINO}-1-PHENYL-1,3-DIHYDRO-2H-INDOL-2-ONE]
Ki (human GAL3 receptor; indolones): 59 nM

Cc1cc(N=C2C(=O)N(c3ccsc3)c3ccccc32)ccc1Cl [Example 290]
Ki (human GAL3 receptor; indolones): 55 nM

O=C1/C(=N\c2ccc3ncccc3c2)c2ccccc2N1c1ccsc1 [Example 291, (3Z)-3-(6-QUINOLINYLIMINO)-1-(3-THIENYL)-1,3-DIHYDRO-2H-INDOL-2-ONE]
Ki (human GAL3 receptor; indolones): 271 nM

O=C1C(=Nc2ccc(Cl)cc2)c2ccccc2N1c1ccsc1 [Example 292, (3Z)-3-[(4-CHLOROPHENTYL)IMINO]-1-(3-THIENYL)-1,3-DIHYDRO-2H-INDOL-2-ONE]
Ki (human GAL3 receptor; indolones): 34 nM

CC(C)c1cccc(/N=C2\C(=O)N(c3ccsc3)c3ccccc32)c1 [Example 295, (3Z)-3-[(3-ISOPROPYLPHENYL)IMINO]-1-(3-THIENYL)-1,3-DIHYDRO-2H-INDOL-2-ONE]
Ki (human GAL3 receptor; indolones): 242 nM

O=C1/C(=N\c2ccc(C3CCCCC3)cc2)c2ccccc2N1c1ccsc1 [Example 296, (3Z)-3-[(4-CYCLOHEXYLPHENYL)IMINO]-1-(3-THIENYL)-1,3-DIHYDRO-2H-INDOL-2-ONE]
Ki (human GAL3 receptor; indolones): 82 nM

N#CCc1ccc(/N=C2\C(=O)N(c3ccccc3)c3ccccc32)cc1 [Example 297, (4-{[(3Z)-2-OXO-1-PHENYL-1,2-DIHYDRO-3H-INDOL-3-YLIDENE]AMINO}PHENYL)ACETONITRILE]
Ki (human GAL3 receptor; indolones): 226 nM

O=C1/C(=N\c2ccc3c(c2)OC(F)(F)O3)c2ccccc2N1c1ccccc1 [Example 298, (3Z)-3-[(2,2-DIFLUORO-1,3-BENZODIOXOL-5-YL)IMINO]-1-PHENYL-1,3-DIHYDRO-2H-INDOL-2-ONE]
Ki (human GAL3 receptor; indolones): 22 nM

O=C1/C(=N\c2ccc3ncsc3c2)c2ccccc2N1c1ccccc1 [Example 299, (3Z)-3-(1,3-BENZOTHIAZOL-6-YLIMINO)-1-PHENYL-1,3-DIHYDRO-2H-INDOL-2-ONE]
Ki (human GAL3 receptor; indolones): 377 nM

O=C1/C(=N\c2cccc(C(F)(F)F)c2)c2ccccc2N1C1CCOCC1 [Example 300, (3Z)-1-TETRAHYDRO-2H-PYRAN-4-YL-3-{[3-(TRIFLUOROMETHYL)PHENYL]IMINO}-1,3-DIHYDRO-2H-INDOL-2-ONE]
Ki (human GAL3 receptor; indolones): 742 nM

O=C1/C(=N\c2ccc3cn[nH]c3c2)c2ccccc2N1c1ccccc1 [Example 301, (3Z)-3-(1H-INDAZOL-6-YLIMINO)-1-PHENYL-1,3-DIHYDRO-2H-INDOL-2-ONE]
Ki (human GAL3 receptor; indolones): 875 nM

COc1ccc2c(c1)N(c1ccccc1)C(=O)/C2=N\c1cccc(Cl)c1 [Example 302, (3Z)-3-[(3-CHLOROPHENYL)IMINO]-6-METHOXY-1-PHENYL-1,3-DIHYDRO-2H-INDOL-2-ONE]
Ki (human GAL3 receptor; indolones): 150 nM

COc1ccc2c(c1)N(c1ccccc1)C(=O)/C2=N\c1cccc(C(F)(F)F)c1 [Example 303, (3Z)-6-METHOXY-1-PHENYL-3-{[3-(TRIFLUOROMETHYL)PHENYL]IMINO}-1,3-DIHYDRO-2H-INDOL-2-ONE]
Ki (human GAL3 receptor; indolones): 214 nM

O=C1/C(=N\c2ccc(-c3ccsc3)cc2)c2ccccc2N1c1ccccc1 [Example 304, (3Z)-1-PHENYL-3-{[4-(3-THIENYL)PHENYL]IMINO}-1,3-DIHYDRO-2H-INDOL-2-ONE]
Ki (human GAL3 receptor; indolones): 728 nM

O=C1/C(=N\c2ccc(-c3cccnc3)cc2)c2ccccc2N1c1ccccc1 [Example 306]
Ki (human GAL3 receptor; indolones): 160 nM

O=C1/C(=N\c2cccc(Br)c2)c2ccccc2N1c1ccccc1 [Example 307, (3Z)-3-[(3-BROMOPHENYL)IMINO]-1-PHENYL-1,3-DIHYDRO-2H-INDOL-2-ONE]
Ki (human GAL3 receptor; indolones): 41 nM

O=C1/C(=N\c2cccc(C(F)(F)F)c2)c2cc(-c3ccccc3)ccc2N1c1ccccc1 [Example 308]
Ki (human GAL3 receptor; indolones): 98 nM

O=C1/C(=N\c2cccc(C(F)(F)F)c2)c2ccccc2N1c1ccc(-c2ccccc2)cc1 [Example 309, (3Z)-1-[1,1'-BIPHENYL]-4-YL-3-{[3-(TRIFLUOROMETHYL)PHENYL]IMINO}-1,3-DIHYDRO-2H-INDOL-2-ONE]
Ki (human GAL3 receptor; indolones): 224 nM

O=C1/C(=N\c2cccc(C(F)(F)F)c2)c2ccccc2N1c1ccc(O)cc1 [Example 310, (3Z)-1-(4-HYDROXYPHENYL)-3-{[3-(TRIFLUOROMETHYL)PHENYL]IMINO}-1,3-DIHYDRO-2H-INDOL-2-ONE]
Ki (human GAL3 receptor; indolones): 126 nM

O=C1/C(=N\c2ccc(Cl)c(Cl)c2)c2ccccc2N1Cc1cccnc1 [Example 311]
Ki (human GAL3 receptor; indolones): 32 nM

CNCCC(Oc1ccc(C(F)(F)F)cc1)c1ccccc1 (stereo not drawn) [Fluoxetine, fluoxetine, reference compound]
Climbing (Male Sprague-Dawley rats; [5]): 1.2 ± 0.4
Diving (Male Sprague-Dawley rats; [5]): 0.0 ± 0.0
Immobility (Male Sprague-Dawley rats; [5]): 45 ± 1.3^c
Swimming (Male Sprague-Dawley rats; [5]): 13.9 ± 1.0
Climbing (Male Sprague-Dawley rats; [6]): 14.3 ± 0.9 counts
Diving (Male Sprague-Dawley rats; [6]): 0.1 ± 0.1
Immobility (Male Sprague-Dawley rats; [6]): 21 ± 0.9^a counts
Swimming (Male Sprague-Dawley rats; [6]): 25 ± 1.2^b counts
Climbing (Male Sprague-Dawley rats; [7]): 3.3 ± 0.6
Diving (Male Sprague-Dawley rats; [7]): 0.2 ± 0.1
Immobility (Male Sprague-Dawley rats; [7]): 35 ± 1.7^a
Swimming (Male Sprague-Dawley rats; [7]): 21.4 ± 1.0^b
